Reference: patent US11819499B2, “Single-dose, ready-to-use injectable formulations” (BioSplice Therapeutics, Inc., priority 2016, dated 2023)

How the values were obtained:
Assay type in all cases: physicochemical
[1] = Drying or heating in a DSC chamber followed by XRD (form conversion)
Protocol: The Form 1 solid was dried at 75° C. under vacuum overnight, and XRD, DSC, and TGA scans were performed. […] However, the DSC scans indicated the absence of endotherm. The loss of the early peak on the DSC scan had no effect on the XRD trace, showing that the wide endotherm between 50-100° C. on DSC scan was due to the free solvent.
The Form 1 solid was heated in a DSC chamber to 305° C. (past the endotherm/exotherm around 280° C.), and then scanned by XRD. […] It can be concluded that the endotherm/exotherm around 280° C. might be due to melting/crystallization events.
The Form 2 solid was heated in a DSC machine to 90° C. (past the wide endotherm between 50-100° C.); to 270° C. (past the endotherm/exotherm around 240° C.); and finally to 330° C. (past the […]). The residual solid was analyzed by XRD. […] The wide endotherm between 50-100° C. might be free solvent or hydrate. […] Thus, the exotherm around 290° C. was a re-crystallization event. According to an XRD and DSC overlay, the behavior of Form 2* was similar to Form 2.
This has been confirmed for Forms 1 and 2.
Form 13 solid was heated in a DSC chamber to 170° C. (past the endotherm between 50-100° C.), and then scanned by XRD. […] It can be concluded that the endotherm between 50-100° C. is due to bonded water.
Form 13 solid was heated in a DSC chamber to 330° C. (past the endotherm/exotherm around 300° C.), and then scanned by XRD. […] It can be concluded that the endotherm/exotherm is due to melting/crystallization events.

[2] = Dynamic vapor sorption (DVS) scan; conditions: at 90% RH
Source text: The purity of the Form 13 sample was 98.8%; the KF of an undried Form 13 sample was 35.7%.

[3] = Exposure to relative humidity / air followed by XRD
[4] = as above; remark: listed apart in the source
Source text: FIGS. 15A-15D are scans of Form 1 in the presence of increasing relative humidity (RH), an example of a non-stoichiometric or stoichiometric hydrate of polymorph Form 1 of the compound of Formula (I). FIG. 15A is an x-ray powder diffraction scan of Form 1 exposed to 10% RH as the anhydrous Form 1. FIG. 15B is an x-ray powder diffraction scan of Form 1 exposed to 20% RH as a partial hydrate of Form 1. FIG. 15C is an x-ray powder diffraction scan of Form 1 exposed to 30% RH as a hydrate of Form 1 (≈10-12% water uptake). FIG. 15D is an x-ray powder diffraction scan of Form 1 exposed to 90% RH as a full hydrate of Form 1 (≈17-20% water uptake). […] The hydrate lost its water below 30% RH. […] The crystal lattice of Form 1 expanded when water was sorbed, giving rise to XRD peaks at ˜5, ˜7 and ˜11 degrees while maintaining the main XRD pattern. The hydrates of Form 1 of a compound of Formula (I) (Form 11) were fully reversible, and lost water when exposed to % RH of less than 20%, turning Form 11 to hydrated forms of Form 1 and to the anhydrous Form 1. Solvates 1 and 2 solids were exposed to air overnight, and then analyzed by XRD. After the analysis, the solids were dried at 50° C. under vacuum, and then analyzed by XRD again.

[5] = Reslurry experiments (polymorph screen) in 39 pure and binary solvents at RT and 50° C. for 5 days, XRD of wet and dry samples
Protocol: Reslurry experiments in various solvents were performed. Approximately 30-80 mg of the starting solid (a non-stoichiometric or stoichiometric hydrate of Form 1 having between 1% and about 20% by weight water) was slurried in 39 different solvents (pure and binary solvents; the ratio of organic solvent/water (V/V) was 95%/5%) at RT and 50° C. for 5 days. Three solvates, one hydrate, and eleven non-solvated forms were identified. […] XRD of both wet and dry samples were scanned (FIG. 12A (dry sample)).
The slurry experiments identified 3 solvated forms from wet samples (Solvates 1, 2, and 3); 2 non-stoichiometric hydrates of Form 1 (Forms 12 and 13); and 11 non-solvated forms (Forms 1-11). In some instances, similar XRD scans with minor differences were obtained. These were considered to be part of the same class (e.g., the same form). For example, XRD scans of Form 2 and Form 2* were similar and were considered to belong to the same class. The solvated forms were obtained from wet sample analysis; after drying, the sample indicated a different XRD.
Solvate 1 was obtained from acetone at RT, and after drying, a low crystallinity solid was generated. Solvate 2 was obtained from acetone (at RT) and acetone/water (at RT), and after drying, Form 4** was generated. Solvate 3 was obtained from EtOH/water at RT, and after drying, Form 2 was generated.

[6] = Competitive slurry experiments between polymorph forms (15 forms mixed, 3-5 days, XRD); conditions: water at RT and 50° C.
Protocol: In order to find out the thermodynamic stability between the different forms, several competitive slurry experiments were carried out. Form 1, Form 2, Form 2*, Form 3, Form 4, Form 4*, Form 4**, Form 5, Form 7, Form 8, Form 9, Form 10, Form 11, Form 11*, and Form 13 (10 mg for each) was mixed and slurried in 2 mL of solvent at both RT and 50° C. The solids were slurried for 3-5 days and then analyzed by XRD.

[7] = Solubility of the starting solid by the gravimetric method; conditions: at RT and at 50° C. in all solvents tested except DMF and DMSO
[8] = reslurry in Acetonitrile/water (5% water), 50° C.
[9] = reslurry in DCM/water (5% water), 50° C.
[10] = reslurry in DCM/water (5% water), RT
[11] = reslurry in Heptane/water (5% water), 50° C.
[12] = reslurry in Heptane/water (5% water), RT
[13] = reslurry in IPAc/water (5% water), 50° C.
[14] = reslurry in MA/water (5% water), RT
[15] = reslurry in MIBK/water (5% water), 50° C.
[16] = reslurry in MeOH/water (5% water), 50° C.
[17] = reslurry in MtBE/water (5% water), 50° C.
[18] = reslurry in Toluene/water (5% water), 50° C.
[19] = reslurry in Toluene/water (5% water), RT
[20] = reslurry in n-Butanol/water (5% water), 50° C.
[21] = reslurry in n-Butanol/water (5% water), RT
[22] = reslurry in n-Butyl acetate/water (5% water), 50° C.
[23] = reslurry in n-Butyl acetate/water (5% water), RT

CC(C)CC(=O)Nc1cncc(-c2ccc3[nH]nc(-c4nc5c(-c6cccc(F)c6)cncc5[nH]4)c3c2)c1 [Form 1, N-(5-(3-(7-(3-fluorophenyl)-3H-imidazo[4,5-c]pyridin-2-yl)-1H-indazol-5-yl)pyridin-3-yl)-3-methylbutanamide]
XRD after drying ([1]; dried at 75° C. under vacuum overnight): no change | form after heating (XRD) ([1]; heated in a DSC chamber to 305° C.): converted to Form 9 | form when heated to just before melting ([1]; heated to just before melting at 364° C.): convert to Form 9 | water absorption (DVS scan) [2]: 17% | RH above which Form 1 tended to convert to hydrate of Form 1 (Form 13) [3]: above 4050% | water uptake ([4]; exposed to 30% RH (FIG. 15C), hydrate of Form 1): 10-12% | water uptake ([4]; exposed to 90% RH (FIG. 15D), full hydrate of Form 1): 17-20% | form when exposed to air ([4]; exposed to air): converts to Form 13

CC(C)CC(=O)Nc1cncc(-c2ccc3[nH]nc(-c4nc5c(-c6cccc(F)c6)cncc5[nH]4)c3c2)c1 [Form 13, N-(5-(3-(7-(3-fluorophenyl)-3H-imidazo[4,5-c]pyridin-2-yl)-1H-indazol-5-yl)pyridin-3-yl)-3-methylbutanamide]
form after heating (XRD) ([1]; heated in a DSC chamber to 170° C.): converted to Form 1 | form after heating (XRD) ([1]; heated to 330° C.): converted to Form 9 | form upon drying ([1]; upon drying): converted to Form 1 | water absorption (DVS scan) [2]: 17% | RH below which the hydrate lost its water ([4]; relative humidity): below 30% | Dry (form by XRD) [5, 8]: Form 13 | Wet (form by XRD) [5, 8]: Form 13 | Dry (form by XRD) ([5]; reslurry in DCM, 50° C.): Form 13 | Wet (form by XRD) ([5]; reslurry in DCM, 50° C.): Form 13 | Dry (form by XRD) [5, 9]: Form 1 | Wet (form by XRD) [5, 9]: Form 13 | Dry (form by XRD) [5, 10]: Form 1 | Wet (form by XRD) [5, 10]: Form 13 | Dry (form by XRD) ([5]; reslurry in Heptane, 50° C.): Form 13 | Wet (form by XRD) ([5]; reslurry in Heptane, 50° C.): Form 13 | Dry (form by XRD) [5, 11]: Form 1 | Wet (form by XRD) [5, 11]: Form 13 | Dry (form by XRD) [5, 12]: Form 12 | Wet (form by XRD) [5, 12]: Form 13 | Dry (form by XRD) [5, 13]: Form 13 | Wet (form by XRD) [5, 13]: Form 13 | Dry (form by XRD) [5, 14]: Form 1 | Wet (form by XRD) [5, 14]: Form 13 | Dry (form by XRD) [5, 15]: Form 1 | Wet (form by XRD) [5, 15]: Form 13 | Dry (form by XRD) ([5]; reslurry in MeOH, RT): Form 1 | Wet (form by XRD) ([5]; reslurry in MeOH, RT): Form 13 | Dry (form by XRD) [5, 16]: Form 13 | Wet (form by XRD) [5, 16]: Form 13 | Dry (form by XRD) [5, 17]: Form 13 | Wet (form by XRD) [5, 17]: Form 13 | Dry (form by XRD) [5, 18]: Form 13 | Wet (form by XRD) [5, 18]: Form 13 | Dry (form by XRD) [5, 19]: Form 1 | Wet (form by XRD) [5, 19]: Form 13 | Dry (form by XRD) [5, 20]: Form 1 | Wet (form by XRD) [5, 20]: Form 13 | Dry (form by XRD) [5, 21]: Form 13 | Wet (form by XRD) [5, 21]: Form 13 | Dry (form by XRD) [5, 22]: Form 1 | Wet (form by XRD) [5, 22]: Form 13 | Dry (form by XRD) [5, 23]: Form 12 | Wet (form by XRD) [5, 23]: Form 13 | Dry (form by XRD) ([5]; reslurry in water, 50° C.): Form 13 | Wet (form by XRD) ([5]; reslurry in water, 50° C.): Form 13 | Dry (form by XRD) ([5]; reslurry in water, RT): Form 1 | Wet (form by XRD) ([5]; reslurry in water, RT): Form 13 | thermodynamic stability between forms (competitive slurry) [6]: most stable

CC(C)CC(=O)Nc1cncc(-c2ccc3[nH]nc(-c4nc5c(-c6cccc(F)c6)cncc5[nH]4)c3c2)c1 [starting solid, N-(5-(3-(7-(3-fluorophenyl)-3H-imidazo[4,5-c]pyridin-2-yl)-1H-indazol-5-yl)pyridin-3-yl)-3-methylbutanamide]
Solubility (in words) [7]: low solubility
